Assay results as given in article PMC12655172, “Borylated 5-Membered Ring Iminosugars: Synthesis and Biological Evaluation for Glycosidase Inhibition and Anticancer Properties for Application in Boron Neutron Capture Therapy (BNCT)—Part 2” (Pharmaceuticals, 2025).

What was measured:
[1] = tested on: A2780 (ovarian carcinoma); experiment: Cancer screening, MTT growth inhibition; assay type: cell-based; conditions: for inhibition at 25 µM / GI50: Homo sapiens; for inhibition at 25 µM: A2780, 25 µM of drug, read-out: DOSE SCREEN percentage (%) cell growth inhibition A2780 Ovarian; for GI50: A2780, 72 h, read-out: DOSE RESPONSE GI50 A2780 Ovarian
Protocol: (§1) For Table 4, all test agents were prepared as stock solutions ([…]) in dimethyl sulfoxide (DMSO) and stored at −20 °C. Cell lines used in the study included HT29 (colorectal carcinoma), A2780 (ovarian carcinoma), H460 (lung carcinoma), A431 (skin carcinoma), MiaPaCa-2 (pancreatic carcinoma), and SMA560 (spontaneous murine astrocytoma), together with MCF10A (non-tumour derived normal breast cell line). Cell line sources: the HT29, H460, and MiaPaCa-2, together with MCF10A were purchased from ATCC. The A2780 and A431 were purchased from the European Collection of Cell Culture (ECACC). All cell lines were incubated in a humidified atmosphere 5% CO2 at 37 °C. The cancer cell lines were maintained in Dulbecco’s modified Eagle’s medium (DMEM; Sigma, Truganina, Australia) supplemented with foetal bovine serum (10%), sodium pyruvate ([…]), penicillin (100 IUmL^−1), streptomycin (100 µg mL^−1), and L-glutamine ([…]).
(§2) Growth inhibition was determined by plating cells in duplicate in medium (100 µL) at a density of 2500–4000 cells per well in 96-well plates. On day 0 (24 h after plating), when the cells are in logarithmic growth, medium (100 µL) with or without the test agent was added to each well. […] Each data point is the mean ± the standard error of the mean (SEM) calculated from three replicates which were performed on separate occasions and separate cell line passages.

[2] = tested on: HT29 (colorectal carcinoma); experiment: Cancer screening, MTT growth inhibition; assay type: cell-based; conditions: for inhibition at 25 µM / GI50: Homo sapiens; for inhibition at 25 µM: HT-29, 25 µM of drug, read-out: DOSE SCREEN percentage (%) cell growth inhibition HT29 Colon; for GI50: HT-29, 72 h, read-out: DOSE RESPONSE GI50 HT29 Colon
Protocol: as §1, §2

A431 (skin carcinoma) = experiment: Cancer screening, MTT growth inhibition; assay type: cell-based; conditions: for inhibition at 25 µM / GI50: Homo sapiens; for inhibition at 25 µM: A-431, 25 µM of drug, read-out: DOSE SCREEN percentage (%) cell growth inhibition A431 Skin; for GI50: A-431, 72 h, read-out: DOSE RESPONSE GI50 A431 Skin
Protocol: as §1, §2

H460 (lung carcinoma) = experiment: Cancer screening, MTT growth inhibition; assay type: cell-based; conditions: for inhibition at 25 µM / GI50: Homo sapiens; for inhibition at 25 µM: NCI-H460, 25 µM of drug, read-out: DOSE SCREEN percentage (%) cell growth inhibition H460 Lung; for GI50: NCI-H460, 72 h, read-out: DOSE RESPONSE GI50 H460 Lung
Protocol: as §1, §2

[3] = tested on: MIA-Pa-Ca2 (pancreatic carcinoma); experiment: Cancer screening, MTT growth inhibition; assay type: cell-based; conditions: for inhibition at 25 µM / GI50: Homo sapiens; for inhibition at 25 µM: MIA PaCa-2, 25 µM of drug, read-out: DOSE SCREEN percentage (%) cell growth inhibition MIA-Pa-Ca2 Pancreatic; for GI50: MIA PaCa-2, 72 h, read-out: DOSE RESPONSE GI50 MIA-Pa-Ca2 Pancreatic
Protocol: as §1, §2

[4] = tested on: β-D-glucuronidase (bovine liver); experiment: Glycosidase inhibition (Table 2 panel); assay type: biochemical
Description: (§3) The enzymes α-D-glucosidase (yeast), β-D-glucosidases (almond, bovine liver), α-D-galactosidase (coffee beans), β-D-galactosidase (bovine liver), α-D-mannosidase (Jack bean), β-D-mannosidase (snail), α-L-rhamnosidase (P. decumbens), α-L-fucosidase (bovine kidney), trehalase (porcine kidney), β-D-glucuronidases (E. coli, bovine liver), amyloglucosidase (A. niger), para-nitrophenyl glycosides, and various disaccharides were purchased from Sigma-Aldrich Co (St. Louis, MO, USA).
(§4) Brush border membranes were prepared from the rat small intestine according to the method of Kessler et al., and were assayed at pH 6.8 for rat intestinal maltase using maltose. For rat intestinal maltase, porcine kidney trehalase, and A. niger amyloglucosidase activities, the reaction mixture contained maltose ([…]) and the appropriate amount of enzyme, and the incubations were performed for 10–30 min at 37 °C. The reaction was stopped by heating at 100 °C for 3 min. After centrifugation (600 g; 10 min), the resulting reaction mixture was added to the Glucose CII-test Wako (Wako Pure Chemical Ind., Osaka, Japan). The absorbance at 505 nm was measured to determine the amount of the released D-glucose. Other glycosidase activities were determined using an appropriate para-nitrophenyl glycoside as substrate at the optimum pH of each enzyme. The reaction mixture contained the substrate ([…]) and the appropriate amount of enzyme. The reaction was stopped by the addition of Na2CO3 ([…]). The released para-nitrophenol was measured spectrometrically at 400 nm. All reactions were run in […].

β-D-glucosidase (almond) = experiment: Glycosidase inhibition (Table 2 panel); assay type: biochemical
Description: as §3, §4

[5] = tested on: α-D-glucosidase (rat intestinal maltase); experiment: Glycosidase inhibition (Table 2 panel); assay type: biochemical
Description: as §3, §4

[6] = tested on: T1, α-D-galactosidase (coffee beans); experiment: Glycosidase inhibition (Table 2 panel); assay type: biochemical
T1 construct: purchased Sigma-Aldrich; host or cells: coffee beans
Description: as §3, §4

[7] = target: T2, β-D-glucosidase (bovine liver) (Bos taurus, UniProt F1MNT6); experiment: Glycosidase inhibition (Table 2 panel); assay type: biochemical
T2 sequence (F1MNT6 1-469): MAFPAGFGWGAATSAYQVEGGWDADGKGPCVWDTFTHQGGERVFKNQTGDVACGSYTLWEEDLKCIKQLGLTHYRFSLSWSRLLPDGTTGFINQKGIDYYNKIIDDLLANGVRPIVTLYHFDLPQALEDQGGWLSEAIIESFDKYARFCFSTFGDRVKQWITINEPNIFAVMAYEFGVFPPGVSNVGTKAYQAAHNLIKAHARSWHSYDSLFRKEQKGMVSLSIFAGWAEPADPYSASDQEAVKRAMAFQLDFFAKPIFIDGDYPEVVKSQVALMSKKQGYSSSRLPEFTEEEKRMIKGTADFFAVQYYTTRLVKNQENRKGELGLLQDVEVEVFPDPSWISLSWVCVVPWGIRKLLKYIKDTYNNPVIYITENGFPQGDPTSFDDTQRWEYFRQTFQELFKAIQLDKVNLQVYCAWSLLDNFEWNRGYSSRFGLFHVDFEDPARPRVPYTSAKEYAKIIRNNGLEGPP
Description: as §3, §4

[8] = tested on: T3, trehalase (porcine kidney); experiment: Glycosidase inhibition (Table 2 panel); assay type: biochemical
T3 construct: purchased Sigma-Aldrich; host or cells: porcine kidney
Description: as §3, §4

β-D-mannosidase (snail) = experiment: Glycosidase inhibition (Table 2 panel); assay type: biochemical
Description: as §3, §4

α-D-glucosidase (rice) = α-D-glucosidase (rice) (Oryza sativa subsp. japonica, UniProt Q653V7); experiment: Glycosidase inhibition (Table 2 panel); assay type: biochemical
Chain of α-D-glucosidase (rice) (Q653V7 34-885): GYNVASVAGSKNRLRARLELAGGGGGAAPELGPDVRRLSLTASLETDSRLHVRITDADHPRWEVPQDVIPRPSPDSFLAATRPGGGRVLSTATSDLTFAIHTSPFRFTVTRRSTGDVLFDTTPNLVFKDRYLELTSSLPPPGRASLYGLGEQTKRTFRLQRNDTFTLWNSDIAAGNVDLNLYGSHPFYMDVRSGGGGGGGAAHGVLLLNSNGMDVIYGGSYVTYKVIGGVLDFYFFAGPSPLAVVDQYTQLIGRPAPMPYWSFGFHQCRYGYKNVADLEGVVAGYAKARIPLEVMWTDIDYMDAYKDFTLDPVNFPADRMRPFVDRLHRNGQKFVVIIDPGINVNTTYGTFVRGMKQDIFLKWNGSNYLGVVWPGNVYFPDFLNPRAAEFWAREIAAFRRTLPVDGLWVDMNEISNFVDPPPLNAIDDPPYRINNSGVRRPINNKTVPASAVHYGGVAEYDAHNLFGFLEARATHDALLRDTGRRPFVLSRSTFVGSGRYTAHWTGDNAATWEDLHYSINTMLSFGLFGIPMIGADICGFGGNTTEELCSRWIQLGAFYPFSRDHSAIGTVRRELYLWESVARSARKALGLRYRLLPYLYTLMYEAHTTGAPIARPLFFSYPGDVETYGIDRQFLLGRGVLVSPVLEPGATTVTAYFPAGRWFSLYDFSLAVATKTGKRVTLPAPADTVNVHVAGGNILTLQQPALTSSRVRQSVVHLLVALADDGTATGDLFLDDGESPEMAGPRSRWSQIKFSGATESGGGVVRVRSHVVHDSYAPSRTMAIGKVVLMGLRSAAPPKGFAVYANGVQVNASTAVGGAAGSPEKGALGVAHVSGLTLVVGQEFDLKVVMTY
Description: as §3, §4

[9] = tested on: α-L-rhamnosidase (P. decumbens); experiment: Glycosidase inhibition (Table 2 panel); assay type: biochemical
Description: as §3, §4

[10] = tested on: T4, α-D-mannosidase (Jack bean); experiment: Glycosidase inhibition (Table 2 panel); assay type: biochemical
T4 construct: purchased Sigma-Aldrich; host or cells: Jack bean
Description: as §3, §4

| Compound | inhibition at 25 µM ([1]; 72 h) [%] | GI50 [1] [µM] | inhibition at 25 µM ([2]; 72 h) [%] | GI50 [2] [µM] | inhibition at 25 µM (A431 (skin carcinoma); 72 h) [%] | GI50 (A431 (skin carcinoma)) [µM] | inhibition at 25 µM (H460 (lung carcinoma); 72 h) [%] | GI50 (H460 (lung carcinoma)) [µM] | inhibition at 25 µM ([3]; 72 h) [%] | GI50 [3] [µM] | inhibition % β-D-Glucuronidase Bovine Liver ([4]; at 100 μM) | inhibition % β-D-Glucuronidase Bovine Liver ([4]; at 1000 μM) | inhibition % β-D-Glucosidase Almond (β-D-glucosidase (almond); at 100 μM) | inhibition % β-D-Glucosidase Almond (β-D-glucosidase (almond); at 1000 μM) | inhibition % α-D-Glucosidase Rat Intestinal Maltase ([5]; at 100 μM) | inhibition % α-D-Galactosidase Coffee Beans ([6]; at 100 μM) | inhibition % α-D-Galactosidase Coffee Beans ([6]; at 1000 μM) | inhibition at 100 µM [7] [%] | inhibition % Trehalase Porcine Kidney ([8]; at 100 μM) | inhibition % Trehalase Porcine Kidney ([8]; at 1000 μM) | other results |
| --- | --- | --- | --- | --- | --- | --- | --- | --- | --- | --- | --- | --- | --- | --- | --- | --- | --- | --- | --- | --- | --- |
| OB(O)c1ccccc1CN1C[C@@H](O)[C@H]2OC(O)[C@H](O)[C@H]21 (stereo partly drawn) [ortho 3, N-(2-Methylphenylboronic acid)-3,6-dideoxy-3,6-imino-D-gulofuranose] | 17 ± 2 | > 50 | < 0 | > 50 | 3 ± 1 | > 50 | 2 ± 1 | > 50 | 5 ± 5 | > 50 | ^cNI ^d(2.9%) | ^aNI ^b(6.6%) | ^cNI ^d(13.7%) | ^aNI ^b(38.8%) | ^cNI ^d(0%) | ^cNI ^d(0%) | ^aNI ^b(0%) | 0 | ^cNI ^d(0%) | ^aNI ^b(0%) | inhibition % α-D-Glucosidase Rat Intestinal Maltase ([5]; at 1000 μM): ^aNI ^b(0.7%); inhibition % β-D-Mannosidase Snail (β-D-mannosidase (snail); at 100 μM): ^cNI ^d(0%); inhibition % β-D-Mannosidase Snail (β-D-mannosidase (snail); at 1000 μM): ^aNI ^b(0%); inhibition at 100 µM (α-D-glucosidase (rice)): 0%; inhibition at 1000 µM (α-D-glucosidase (rice); at 1000 μM): 0%; inhibition % α-L-Rhamnosidase P. decumbens ([9]; at 100 μM): ^cNI ^d(0%); inhibition % α-L-Rhamnosidase P. decumbens ([9]; at 1000 μM): ^aNI ^b(3.2%); inhibition % α-D-Mannosidase Jack Bean ([10]; at 100 μM): ^cNI ^d(3.8%); inhibition % α-D-Mannosidase Jack Bean ([10]; at 1000 μM): ^aNI ^b(0%) |
| OC[C@H](O)[C@@H]1[C@H](O)[C@H](O)CN1Cc1ccccc1B(O)O [ortho 4, N-(2-Methylphenylboronic acid)-1,4-dideoxy-1,4-imino-L-gulitol] | 16 ± 8 | > 50 | < 0 | > 50 | 17 ± 2 | > 50 | 8 ± 2 | > 50 | 7 ± 2 | > 50 | ^cNI ^d(0%) | ^aNI ^b(0.9%) | ^cNI ^d(2.6%) | ^aNI ^b(40.1%) | ^cNI ^d(0%) | ^cNI ^d(0%) | ^aNI ^b(2.7%) | 3.3 | ^cNI ^d(0%) | ^aNI ^b(0%) | inhibition at 1000 µM ([7]; at 1000 μM): 25.7%; inhibition % β-D-Mannosidase Snail (β-D-mannosidase (snail); at 100 μM): ^cNI ^d(5.3%); inhibition % β-D-Mannosidase Snail (β-D-mannosidase (snail); at 1000 μM): ^aNI ^b(2.3%); inhibition at 100 µM (α-D-glucosidase (rice)): 0%; IC50 (α-D-glucosidase (rice); listed as of the 1000 μM series): 622 µM; inhibition % α-L-Rhamnosidase P. decumbens ([9]; at 100 μM): ^cNI ^d(4.9%); inhibition % α-L-Rhamnosidase P. decumbens ([9]; at 1000 μM): ^aNI ^b(9.5%); inhibition % α-D-Mannosidase Jack Bean ([10]; at 100 μM): ^cNI ^d(5.6%); inhibition % α-D-Mannosidase Jack Bean ([10]; at 1000 μM): ^aNI ^b(0.4%) |
| CC1(C)O[C@H]2O[C@H]3[C@@H]([C@H]2O1)N(Cc1ccccc1B(O)O)C[C@H]3O [ortho 5] | 19 ± 2 | > 50 | 4 ± 4 | > 50 | 9 ± 4 | > 50 | 2 ± 2 | > 50 | 12 ± 3 | > 50 | ^cNI ^d(0%) |  | ^cNI ^d(2.7%) |  | ^cNI ^d(0%) | ^cNI ^d(8.5%) |  | 13.4 | ^cNI ^d(4.9%) |  | inhibition % β-D-Mannosidase Snail (β-D-mannosidase (snail); at 100 μM): ^cNI ^d(7.0%); inhibition at 100 µM (α-D-glucosidase (rice)): 6.7%; inhibition % α-L-Rhamnosidase P. decumbens ([9]; at 100 μM): ^cNI ^d(0%); inhibition % α-D-Mannosidase Jack Bean ([10]; at 100 μM): ^cNI ^d(12.9%) |
| Borocaptate sodium [BSH, reference compound] |  |  |  |  |  |  |  |  |  |  |  | ^aNI ^b(19.6%) |  | ^aNI ^b(0%) |  |  | ^aNI ^b(12.3%) |  |  | ^aNI ^b(4.2%) | DOSE SCREEN percentage (%) cell growth inhibition A2780 Ovarian ([1]; 25 µM of drug, 72 h): * 2 ± 5%; DOSE SCREEN percentage (%) cell growth inhibition HT29 Colon ([2]; 25 µM of drug, 72 h): * 3 ± 2%; DOSE SCREEN percentage (%) cell growth inhibition A431 Skin (A431 (skin carcinoma); 25 µM of drug, 72 h): * <0%; DOSE SCREEN percentage (%) cell growth inhibition H460 Lung (H460 (lung carcinoma); 25 µM of drug, 72 h): * 8 ± 2%; DOSE SCREEN percentage (%) cell growth inhibition MIA-Pa-Ca2 Pancreatic ([3]; 25 µM of drug, 72 h): * 2 ± 6%; inhibition % α-D-Glucosidase Rat Intestinal Maltase ([5]; at 1000 μM): ^aNI ^b(0%); inhibition % β-D-Glucosidase Bovine Liver ([7]; at 1000 μM): ^aNI ^b(15%); inhibition % β-D-Mannosidase Snail (β-D-mannosidase (snail); at 1000 μM): ^aNI ^b(19.2%); inhibition % α-D-Glucosidase Rice (α-D-glucosidase (rice); at 1000 μM): ^aNI ^b(0%); inhibition % α-L-Rhamnosidase P. decumbens ([9]; at 1000 μM): ^aNI ^b(0.2%); inhibition % α-D-Mannosidase Jack Bean ([10]; at 1000 μM): ^aNI ^b(7.9%) |
